# Measurements as given in PMC11494886, “Discovery and design of molecular glue enhancers of CDK12–DDB1 interactions for targeted degradation of cyclin K” (RSC Chemical Biology, 2024).
# What was measured:
# MDA-MB-231 cells = assay: CellTiter-Glo viability assay, WT MDA-MB-231; type: cell-based; conditions: Homo sapiens; WT MDA-MB-231, 72 hours, CellTiter-Glo; read-out: EC50 cell viability
# Excerpt: MDA-MB-231 (human triple-negative breast cancer cells) and HEK293T (human embryonic kidney cells) were purchased from the American type culture collection (ATCC) and maintained in Dulbecco's modified Eagle's medium (DMEM) (Gibco) supplemented with 10% (v/v) heat-inactivated fetal bovine serum (FBS) (Gibco) and penicillin/streptomycin (100 U mL^−1 each). HiBiT-CCNK KI A549 cells, purchased from Promega, were maintained in F12 medium supplemented with 10% (v/v) heat-inactivated fetal bovine serum (FBS) (Gibco) and penicillin/streptomycin (100 U mL^−1 each). DDB1-knockdown MDA-MB-231 and DDB1-knockdown HEK293T cell lines were maintained in the same media formulation as their corresponding wild-type cell lines. All cell lines were cultured at 37 °C in an incubator with CO2 levels maintained at 5%.
# (§1) Cell viability was measured by Cell Titer Glo assay kit (Promega, USA). EC50 was determined from the nonlinear regression and a four-parameter algorithm on the GraphPad Prism software.
# HEK-293TDDB1-shRNA cells = assay: CellTiter-Glo viability assay, HEK-293T DDB1-shRNA; type: cell-based, human; conditions: 72 hours; for EC50: Homo sapiens, HEK-293T DDB1 shRNA, CellTiter-Glo, read-out: EC50 cell viability
# Excerpt: For stable genetic knock-down of DDB1 in cells, predesigned and validated TRC2-pLKO-puro shRNA plasmids for DDB1 (TRCN0000082855 and TRCN0000082856), and a non-targeting shRNA plasmid (SHC001) were obtained from Millipore Sigma. All plasmids were purified using the Qiagen Maxiprep kit (Qiagen). FuGENE HD 6 transfection reagent (Promega) was used for transfection of plasmids and lentiviral gene/shRNA constructs. Mission lentiviral packaging mix (Millipore Sigma) was used to package lentiviral plasmids into lentiviral particles in HEK293T cells, as per manufacturer's protocols. The resultant virus was concentrated using Vivaspin 20 centrifugal concentrators (Sartorius). MDA-MB-231 and HEK293T cells were transduced with lentivirus. Stable knocked down DDB1 (shDDB1-231 and shDDB1-HEK293T) cells were generated after selection with the antibiotic puromycin, and genetic knockdown was confirmed by western blotting.
# as §1
# Cdk12/CycK and DDB1ΔB = target: T1, Cdk12/CycK and DDB1ΔB (Homo sapiens, UniProt Q16531+Q9NYV4, DEL396-705); assay: Thermal stability (nanoDSF) of mixture of DDB1ΔB and Cdk12/CycK; type: binding; conditions: Cdk12/CycK and DDB1ΔB 5 μM each, 3-fold molar excess of compound
# T1 construct: the Cdk12 (714–1063)/CycK (1–267) complex and the DDB1ΔB protein; made in house; host or cells: Sf9 insect cells (MultiBacTurbo)
# T1 sequence (Q9NYV4 714-1063, stated change not applied): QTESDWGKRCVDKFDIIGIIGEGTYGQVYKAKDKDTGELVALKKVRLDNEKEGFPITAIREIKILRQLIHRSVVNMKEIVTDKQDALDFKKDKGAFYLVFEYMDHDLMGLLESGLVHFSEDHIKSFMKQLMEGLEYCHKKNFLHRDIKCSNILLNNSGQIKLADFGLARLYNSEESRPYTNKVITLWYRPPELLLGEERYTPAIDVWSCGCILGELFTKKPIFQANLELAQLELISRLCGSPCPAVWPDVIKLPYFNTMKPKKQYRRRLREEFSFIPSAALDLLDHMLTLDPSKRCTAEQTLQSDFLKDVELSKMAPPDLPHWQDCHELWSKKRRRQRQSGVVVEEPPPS
# T1 sequence (O75909 1-267 partner limits assumed): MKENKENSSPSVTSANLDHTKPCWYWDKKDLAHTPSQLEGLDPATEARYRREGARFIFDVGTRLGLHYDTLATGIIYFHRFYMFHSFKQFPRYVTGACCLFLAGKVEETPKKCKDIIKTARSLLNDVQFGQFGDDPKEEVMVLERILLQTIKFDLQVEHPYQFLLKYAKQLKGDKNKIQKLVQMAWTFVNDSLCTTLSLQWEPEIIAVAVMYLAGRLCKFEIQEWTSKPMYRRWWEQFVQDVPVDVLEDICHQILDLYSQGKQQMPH
# T1 sequence (Q16531 with tags, fused parts or gaps DEL396-705): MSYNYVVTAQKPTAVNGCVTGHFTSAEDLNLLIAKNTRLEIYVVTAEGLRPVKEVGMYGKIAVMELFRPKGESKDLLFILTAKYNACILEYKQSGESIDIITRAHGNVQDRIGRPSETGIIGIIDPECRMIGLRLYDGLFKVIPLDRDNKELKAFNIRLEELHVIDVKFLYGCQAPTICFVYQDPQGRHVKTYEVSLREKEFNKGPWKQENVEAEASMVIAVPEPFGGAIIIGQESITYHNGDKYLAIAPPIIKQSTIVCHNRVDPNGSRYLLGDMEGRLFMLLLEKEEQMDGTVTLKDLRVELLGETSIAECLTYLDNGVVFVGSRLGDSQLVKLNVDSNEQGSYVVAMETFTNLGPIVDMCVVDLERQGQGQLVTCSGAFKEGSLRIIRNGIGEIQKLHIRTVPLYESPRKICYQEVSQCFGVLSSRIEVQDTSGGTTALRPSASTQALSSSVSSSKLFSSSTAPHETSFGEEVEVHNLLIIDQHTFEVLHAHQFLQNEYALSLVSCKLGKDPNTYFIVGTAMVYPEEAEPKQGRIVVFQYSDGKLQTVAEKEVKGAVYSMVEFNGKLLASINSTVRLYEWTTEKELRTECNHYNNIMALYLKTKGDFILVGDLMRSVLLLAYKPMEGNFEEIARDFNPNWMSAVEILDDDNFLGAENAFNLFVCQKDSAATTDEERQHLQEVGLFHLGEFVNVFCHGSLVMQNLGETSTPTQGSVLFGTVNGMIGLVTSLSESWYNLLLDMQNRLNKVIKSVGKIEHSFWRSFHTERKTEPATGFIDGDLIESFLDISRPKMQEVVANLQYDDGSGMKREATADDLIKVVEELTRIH
# Excerpt: Synthetic genes, codon optimized for expression in Sf9 insect cells, comprising the kinase domain of human Cdk12 (residues 714–1063, UniProt accession number Q9NYV4) and cyclin box domains of human cyclin K (residues 1–267, UniProt accession number O75909) were purchased from GeneArt. The coding sequence of Cdk12 was integrated into the pACEBac1 acceptor vector, while CycK was introduced into pIDK donor vector. Both target vectors underwent modification, wherein a GST-affinity tag followed by a tobacco etch virus (TEV) protease cleavage site was introduced upstream of the protein coding sequence. A pIDC donor vector was employed to insert full-length CDK-activating kinase CAK1 (UniProt accession number P43568) from S. cerevisiae devoid of any affinity tag. […]
# The human wild-type BPB domain deletion version (ΔBPB: amino acids 396–705 deleted) of DNA damage-binding protein 1 (DDB1) (residues 1–1140 Δ396–705, UniProt accession number Q16531) was PCR-amplified from AddGene plasmid #124213 and inserted into a pACEBac1 vector, which had been modified with a N-terminal His6 affinity tag. […] After loading the supernatant, the column was washed with 10 column volumes (CV) lysis buffer to achieve baseline levels of absorbance at 280 nm wavelength, followed by 3 CV of wash buffer (50 mM Tris pH 8, 200 mM NaCl, 1 mM TCEP, 50 mM Imidazole) and another round of lysis buffer (5 CV). […]
SMILES,EC50 (MDA-MB-231 cells),EC50 (HEK-293TDDB1-shRNA cells),ΔTm (Cdk12/CycK and DDB1ΔB),fold change of EC50 (DDB1 shRNA vs WT) (HEK-293TDDB1-shRNA cells; HEK-293T DDB1 shRNA vs WT HEK-293T)
Cn1cc(-n2cnc3c(NCc4nc5cc(Cl)c(Cl)cc5[nH]4)nc(N4CCOCC4)nc32)cn1 [SR-4835],0.055 µM,2 µM,+5.05 °C,
"CN(C)C/C=C/C(=O)Nc1ccc(C(=O)N2CCC[C@@H](Nc3ncc(Cl)c(-c4c[nH]c5ccccc45)n3)C2)cc1 [THZ531, reference compound]",0.072 µM,0.231 µM,+2 °C,ns
